Experimental findings from ChEMBL document CHEMBL2429735, “Preparation of imidazoles as potent calcitonin gene-related peptide (CGRP) antagonists” (Bioorg Med Chem Lett, 2013) are described below.

pIC50: −log10 of the molar value.

Data set [1] addresses Calcitonin gene-related peptide type 1 receptor (Homo sapiens, UniProt O60894+Q16602). Briefly: Antagonist activity at human CGRP receptor expressed in human SK-N-MC cells assessed as inhibition of CGRP-stimulated cAMP production. It is filed as functional, cell-based. (Cyclic AMP is a second messenger, typically raised through Gs and lowered through Gi signalling.)
In another data set the test system is Liver. Put plainly: Metabolic stability in mouse liver microsomes assessed as compound remaining. It counts as ADME, Microsome.
Data set [2] has as its system Liver microsomes. Briefly: Metabolic stability in rat liver microsomes assessed as compound remaining. It is filed as ADME, Microsome. On the technique in general: Liver microsomes are a subcellular fraction often used to study metabolism.
Data set [3] deals with Liver microsomes. Briefly: Metabolic stability in human liver microsomes assessed as compound remaining. It counts as ADME, Microsome.
Data set [4] is described as follows: Permeability of the compound by PAMPA method at pH 7.4. It counts as ADME. As to conditions: read-out: permeability. For orientation: In PAMPA a lipid-coated filter parts donor from acceptor wells.

What is called pIC50 is the IC50 on a negative log10 scale, so that one unit is a factor of ten.

Sequence of Calcitonin gene-related peptide type 1 receptor (Q16602 whole entry, one chain of several): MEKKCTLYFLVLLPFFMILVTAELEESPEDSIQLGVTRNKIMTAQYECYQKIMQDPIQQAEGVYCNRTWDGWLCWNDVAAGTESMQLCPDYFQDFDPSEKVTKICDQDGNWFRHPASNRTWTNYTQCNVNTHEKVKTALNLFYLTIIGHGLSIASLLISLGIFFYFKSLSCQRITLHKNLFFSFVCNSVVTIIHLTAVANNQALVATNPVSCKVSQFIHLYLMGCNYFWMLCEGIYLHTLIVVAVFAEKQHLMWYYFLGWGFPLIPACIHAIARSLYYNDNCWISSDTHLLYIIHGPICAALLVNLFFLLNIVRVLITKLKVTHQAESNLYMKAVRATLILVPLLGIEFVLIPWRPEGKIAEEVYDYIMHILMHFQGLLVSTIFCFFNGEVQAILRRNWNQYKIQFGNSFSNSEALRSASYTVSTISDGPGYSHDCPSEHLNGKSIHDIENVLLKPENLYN

Turning to `Cc1cc(CC(NC(=O)N2CCC(N3Cc4ccccc4NC3=O)CC2)c2nccn2Cc2ccc(C(C)(C)C)cc2)cc2cn[nH]c12` (racemic), in data set [1], the negative logarithm of the IC50 (pIC50) is 9.72.

On to `Cc1cc(CC(NC(=O)N2CCC(N3Cc4ccccc4NC3=O)CC2)c2ncc(C)n2Cc2cccc(F)c2)cc2cn[nH]c12` (racemic), for which the Stability in the data set with Liver was 85%; in the data set with Liver microsomes [2], 87%; with Liver microsomes [3] it was 100%. Moreover, in data set [1], the pIC50 is 9.43.

Take `Cc1cc(Cn2ccnc2C(Cc2cc(C)c3[nH]ncc3c2)NC(=O)N2CCC(N3Cc4ccccc4NC3=O)CC2)ccn1` (racemic): the Stability came out at 1% in the data set with Liver, 2% with Liver microsomes [2] and 1% with Liver microsomes [3]. In addition, in data set [1], the pIC50 is 9.89.

Consider `Cc1cc(CC(OC(=O)N2CCC(c3cc4ccccc4[nH]c3=O)CC2)c2ncc3n2CCNC3)cc2cn[nH]c12` (racemic), for which the negative-log IC50 (pIC50) in data set [1] was 8.54.

Take `Cc1cc(CC(NC(=O)N2CCC(N3Cc4ccccc4NC3=O)CC2)c2nccn2Cc2ccccc2)cc2cn[nH]c12` (racemic): the pIC50 in data set [1] is 9.11.

Take `Cc1cc(CC(OC(=O)N2CCC(c3cc4ccccc4[nH]c3=O)CC2)c2ncc3n2CCN(Cc2ccccc2)C3)cc2cn[nH]c12` (racemic): the results for the Stability in the data set with Liver, in the data set with Liver microsomes [2] and in the data set on Liver microsomes [3] were 9%, 32% and 41%, respectively.

Take `Cc1cc(CC(NC(=O)N2CCC(N3Cc4ccccc4NC3=O)CC2)c2nccn2Cc2ccncc2)cc2cn[nH]c12` (racemic): the pIC50 in data set [1] was 9.08.

Take `Cc1cc(CC(NC(=O)N2CCC(N3Cc4ccccc4NC3=O)CC2)c2nc(Br)cn2Cc2cc(F)cc(F)c2)cc2cn[nH]c12` (racemic): the values for the Stability in the data set with Liver, in the data set with Liver microsomes [2] and in the data set on Liver microsomes [3] were 93%, 100% and 100%, respectively. In addition, the pIC50 in data set [1] was 9.41.

For the compound `Cc1cc(CC(NC(=O)N2CCC(N3Cc4ccccc4NC3=O)CC2)c2nccn2C)cc2cn[nH]c12` (racemic), the pIC50 in data set [1] was 8.32.

Turning to `Cc1cc(CC(NC(=O)N2CCC(N3Cc4ccccc4NC3=O)CC2)c2nccn2Cc2cccc(F)c2)cc2cn[nH]c12` (racemic), the pIC50 in data set [1] was 9.20.

As to `Cc1cc(CC(NC(=O)N2CCC(N3Cc4ccccc4NC3=O)CC2)c2ncc(Br)[nH]2)cc2cn[nH]c12` (racemic), the pIC50 in data set [1] was 8.13.

As to `Cc1cc(CC(NC(=O)N2CCC(N3Cc4ccccc4NC3=O)CC2)c2nccn2Cc2ccc(F)cc2)cc2cn[nH]c12` (racemic), in data set [1], the pIC50 was 9.01.

Consider `Cc1cc(CC(NC(=O)N2CCC(N3Cc4ccccc4NC3=O)CC2)c2nccn2Cc2cc(F)cc(F)c2)cc2cn[nH]c12` (racemic), for which the results for the Stability in the data set with Liver, in the data set with Liver microsomes [2] and in the data set with Liver microsomes [3] were 66%, 78% and 84%, respectively. Further, the negative-log IC50 (pIC50) in data set [1] is 9.41.

With `Cc1cc(CC(OC(=O)N2CCC(c3cc4ccccc4[nH]c3=O)CC2)c2ncc3n2CCN(C2CCCCC2)C3)cc2cn[nH]c12` (racemic), the Stability was 21% with Liver, 30% with Liver microsomes [2] and 41% in the data set with Liver microsomes [3].

Consider `Cc1cc(CC(NC(=O)N2CCC(N3Cc4ccccc4NC3=O)CC2)c2nccn2CCc2ccccc2)cc2cn[nH]c12` (racemic), for which the pIC50 in data set [1] was 9.06.

For `Cc1cc(CC(NC(=O)N2CCC(N3Cc4ccccc4NC3=O)CC2)c2nccn2Cc2cccnc2)cc2cn[nH]c12` (racemic), the Stability in the data set with Liver was 2%; in the data set with Liver microsomes [2], 20%; in the data set with Liver microsomes [3], 4%. Also, the pIC50 in data set [1] was 9.38.

Consider `Cc1cc(CC(NC(=O)N2CCC(N3Cc4ccccc4NC3=O)CC2)c2nccn2Cc2ccccc2F)cc2cn[nH]c12` (racemic), for which the pIC50 in data set [1] was 8.72.

For `Cc1cc(CC(NC(=O)N2CCC(N3Cc4ccccc4NC3=O)CC2)c2ncc[nH]2)cc2cn[nH]c12` (racemic), the pIC50 in data set [1] is 7.01.

Consider `Cc1cc(CC(NC(=O)N2CCC(N3Cc4ccccc4NC3=O)CC2)c2nccn2Cc2ccccn2)cc2cn[nH]c12` (racemic), for which the Stability in the data set on Liver is 0%; with Liver microsomes [2], 1%; with Liver microsomes [3], 1%. The pIC50 in data set [1] is 8.80.

Consider `Cc1c[nH]c(C(Cc2cc(C)c3[nH]ncc3c2)NC(=O)N2CCC(N3Cc4ccccc4NC3=O)CC2)n1` (racemic), for which, in data set [1], the pIC50 was 6.92.

Turning to `Cc1cc(Cn2ccnc2C(Cc2cc(C)c3[nH]ncc3c2)NC(=O)N2CCC(N3Cc4ccccc4NC3=O)CC2)cc(Cl)n1` (racemic), the Papp in data set [4] is 3.8 ×10⁻⁶ cm/s. For the same compound, the Stability in the data set with Liver is on record as 0%; with Liver microsomes [2] it was 2%; in the data set with Liver microsomes [3], 2%. In data set [1], the pIC50 is 10.11.

Turning to `Cc1cc(C[C@@H](NC(=O)N2CCC(N3Cc4cccc(F)c4NC3=O)CC2)C(=O)N2CCC(N3CCCCC3)CC2)cc2cn[nH]c12`, the Papp in data set [4] turned out to be 1.1 ×10⁻⁶ cm/s. The pIC50 in data set [1] was 10.59.

With `Cc1cc(CC(NC(=O)N2CCC(N3Cc4ccccc4NC3=O)CC2)c2nc(Br)c(Br)[nH]2)cc2cn[nH]c12` (racemic), the negative logarithm of the IC50 (pIC50) in data set [1] is 8.32.
